Test results: ChEMBL document CHEMBL1138980, “Triazolo[1,5-a]pyrimidines as novel CDK2 inhibitors: protein structure-guided design and SAR” (Bioorg Med Chem Lett, 2006)

How the values were obtained:
HCT-116 = test: Antiproliferative activity against HCT116 colon cancer cell line; format: functional; conditions: Homo sapiens
[1] = target: Glycogen synthase kinase-3 beta (Homo sapiens, UniProt P49841); test: Inhibition of GSK3-beta using 10 uM ATP
[2] = target: Cyclin-dependent kinase 1 (Homo sapiens, UniProt P06493); test: Inhibition of CDK1 using 100 uM ATP
Sequence of Cyclin-dependent kinase 1 (P06493 whole entry): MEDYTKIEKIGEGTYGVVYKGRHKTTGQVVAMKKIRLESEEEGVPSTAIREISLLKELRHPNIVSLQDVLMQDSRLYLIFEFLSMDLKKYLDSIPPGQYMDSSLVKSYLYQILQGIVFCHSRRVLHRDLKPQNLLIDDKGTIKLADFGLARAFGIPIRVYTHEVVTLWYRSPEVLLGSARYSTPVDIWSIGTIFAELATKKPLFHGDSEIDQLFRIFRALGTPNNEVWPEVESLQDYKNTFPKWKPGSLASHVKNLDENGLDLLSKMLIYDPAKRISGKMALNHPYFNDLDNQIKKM

[3] = target: Cyclin-dependent kinase 2 (Homo sapiens, UniProt P24941); test: Inhibition of CDK2 using 100 uM ATP
[4] = target: T1, Serine/threonine-protein kinase Chk1 (Homo sapiens, UniProt O14757); test: Inhibition of Chk1
T1 sequence (O14757 whole entry): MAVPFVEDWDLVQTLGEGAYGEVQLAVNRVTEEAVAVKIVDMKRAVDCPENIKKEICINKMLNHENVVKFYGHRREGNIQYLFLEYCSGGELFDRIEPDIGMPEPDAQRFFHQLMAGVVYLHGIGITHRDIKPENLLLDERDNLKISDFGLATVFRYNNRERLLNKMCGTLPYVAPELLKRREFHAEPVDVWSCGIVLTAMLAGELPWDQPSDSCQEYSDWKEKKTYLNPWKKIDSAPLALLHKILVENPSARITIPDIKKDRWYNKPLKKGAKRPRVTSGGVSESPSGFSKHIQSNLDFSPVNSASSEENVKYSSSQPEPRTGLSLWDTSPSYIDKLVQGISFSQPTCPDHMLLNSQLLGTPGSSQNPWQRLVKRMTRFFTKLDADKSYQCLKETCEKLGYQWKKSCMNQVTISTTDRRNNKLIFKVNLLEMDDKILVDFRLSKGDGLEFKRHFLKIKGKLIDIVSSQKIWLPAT

[5] = Inhibition of PDK1; parameters: species or system Homo sapiens

Sequence of Glycogen synthase kinase-3 beta (P49841 whole entry): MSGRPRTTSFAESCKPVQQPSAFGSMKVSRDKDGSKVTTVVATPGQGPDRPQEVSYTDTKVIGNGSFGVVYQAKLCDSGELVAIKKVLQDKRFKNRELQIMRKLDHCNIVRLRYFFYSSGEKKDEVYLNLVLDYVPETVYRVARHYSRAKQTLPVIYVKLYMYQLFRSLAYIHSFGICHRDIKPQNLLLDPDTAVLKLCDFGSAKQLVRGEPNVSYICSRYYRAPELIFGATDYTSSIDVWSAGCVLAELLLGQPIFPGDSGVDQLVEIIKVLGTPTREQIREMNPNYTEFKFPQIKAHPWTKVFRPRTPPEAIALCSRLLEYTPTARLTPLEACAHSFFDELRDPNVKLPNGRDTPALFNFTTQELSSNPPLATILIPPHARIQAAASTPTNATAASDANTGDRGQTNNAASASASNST

SMILES	GI50 (HCT-116)	IC50 [1]	IC50 [2]	IC50 [3]	IC50 [4]	IC50 [5]
NS(=O)(=O)c1ccc(Nc2cc(NC3CCCCC3)nc3ncnn23)cc1	31 µM	0.97 µM				
Brc1cccc(-c2cc(NCc3ccncc3)n3nccc3n2)c1	8 µM					
CS(=O)(=O)c1ccc(Nc2cc(N[C@H]3CC[C@H](N)CC3)nc3ncnn23)cc1	> 80 µM	43 µM	16 µM			
CCN(CC)c1cc(Nc2ccc(S(N)(=O)=O)cc2)n2ncnc2n1	23 µM	11 µM	3.4 µM	0.4 µM		
NS(=O)(=O)c1ccc(Nc2cc(OCC3CCCCC3)nc3ncnn23)cc1		29 µM				
N[C@H]1CC[C@H](Nc2cc(Nc3ccc(S(=O)(=O)c4ccccc4)cc3)n3ncnc3n2)CC1	> 80 µM	50 µM	4.3 µM			
NS(=O)(=O)c1ccc(Nc2cc(OC3CCCCC3)nc3ncnn23)cc1	25 µM	0.19 µM	0.14 µM			
CN(C)S(=O)(=O)c1ccc(Nc2cc(N[C@H]3CC[C@H](N)CC3)nc3ncnn23)cc1	> 80 µM	20 µM	5.6 µM	0.12 µM	21 µM	> 200 µM
NS(=O)(=O)c1ccc(Nc2nc(OCC3CCCCC3)c3nc[nH]c3n2)cc1		0.04 µM			< 0.5 µM	< 0.5 µM
NS(=O)(=O)c1ccc(Nc2cc(N[C@H]3CC[C@H](N)CC3)nc3ncnn23)cc1	> 80 µM	0.78 µM				43 µM
NS(=O)(=O)c1ccc(Nc2cc(N[C@H]3CC[C@H](O)CC3)nc3ncnn23)cc1	39 µM					
